# Test results taken from the supplement of paper PMC10307832.
# Tests used:
# Assay in all cases: relative viability (nuclei count vs DMSO), 5 days (fraction); higher = more cells survive
# [1] = test system: NCI-H2347
# Outline: (§1)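 Relative viability equals treated-well nuclei counts divided by vehicle-well nuclei counts. Counts came from 4× images of lung cancer cell lines grown in 1536-well plates for 5 days after pin-tool dosing on the day after seeding. Dosing used one drug alone or a fixed anchor-drug dose plus five library-drug doses (not always all listed) in √10 steps, and values are medians of duplicate plates.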
# [2] = test system: H3255
# Outline: as §1
# [3] = test system: 201T
# Outline: as §1
# [4] = test system: NCI-H1793
# Outline: as §1
# [5] = test system: LU99A
# Outline: as §1
# [6] = test system: NCI-H1650
# Outline: as §1
# [7] = test system: NCI-H596
# Outline: as §1
# [8] = test system: A-427
# Outline: as §1
# [9] = test system: PC-14
# Outline: as §1
# [10] = test system: LCLC-103H
# Outline: as §1
# [11] = test system: COR-L23
# Outline: as §1
# [12] = test system: NCI-H727
# Outline: as §1
# [13] = test system: SW 900
# Outline: as §1
# [14] = test system: LC-2-ad
# Outline: as §1
# [15] = test system: PC-3 [JPC-3]
# Outline: as §1
# [16] = test system: LK-2
# Outline: as §1
# [17] = test system: NCI-H460
# Outline: as §1
# [18] = test system: NCI-H23
# Outline: as §1
# [19] = test system: LCLC-97TM1
# Outline: as §1
# [20] = test system: HCC-44
# Outline: as §1
# [21] = test system: SW 1573
# Outline: as §1
smiles,measurement,setting,value
O=c1cc(-c2cccc3c2Sc2ccccc2S3)oc(N2CCOCC2)c1 + Nc1ncn([C@H]2C[C@H](O)[C@@H](CO)O2)c(=O)n1 [Decitabine] (partner 2 µM),relative viability,[1]; first compound 0.08 µM,0.606
same,relative viability,[1]; first compound 0.253 µM,0.663
same,relative viability,[1]; first compound 0.8 µM,0.627
same,relative viability,[1]; first compound 2.53 µM,0.616
same,relative viability,[1]; first compound 8 µM,0.629
same,relative viability,[2]; first compound 0.08 µM,0.653
same,relative viability,[2]; first compound 0.253 µM,0.68
same,relative viability,[2]; first compound 0.8 µM,0.631
same,relative viability,[2]; first compound 2.53 µM,0.558
same,relative viability,[2]; first compound 8 µM,0.689
same,relative viability,[3]; first compound 0.08 µM,0.855
same,relative viability,[3]; first compound 0.253 µM,0.882
same,relative viability,[3]; first compound 0.8 µM,0.893
same,relative viability,[3]; first compound 2.53 µM,0.816
same,relative viability,[3]; first compound 8 µM,0.744
same,relative viability,[4]; first compound 0.08 µM,0.536
same,relative viability,[4]; first compound 0.253 µM,0.614
same,relative viability,[4]; first compound 0.8 µM,0.478
same,relative viability,[4]; first compound 2.53 µM,0.487
same,relative viability,[4]; first compound 8 µM,0.476
same,relative viability,[5]; first compound 0.08 µM,0.897
same,relative viability,[5]; first compound 0.253 µM,0.996
same,relative viability,[5]; first compound 0.8 µM,1.04
same,relative viability,[5]; first compound 2.53 µM,0.866
same,relative viability,[5]; first compound 8 µM,1.18
same,relative viability,[6]; first compound 0.08 µM,0.415
same,relative viability,[6]; first compound 0.253 µM,0.511
same,relative viability,[6]; first compound 0.8 µM,0.416
same,relative viability,[6]; first compound 2.53 µM,0.365
same,relative viability,[6]; first compound 8 µM,0.374
same,relative viability,[7]; first compound 0.08 µM,0.833
same,relative viability,[7]; first compound 0.253 µM,0.951
same,relative viability,[7]; first compound 0.8 µM,0.989
same,relative viability,[7]; first compound 2.53 µM,0.997
same,relative viability,[7]; first compound 8 µM,0.996
same,relative viability,[8]; first compound 0.08 µM,0.448
same,relative viability,[8]; first compound 0.253 µM,0.6
same,relative viability,[8]; first compound 0.8 µM,0.547
same,relative viability,[8]; first compound 2.53 µM,0.573
same,relative viability,[8]; first compound 8 µM,0.548
same,relative viability,[9]; first compound 0.08 µM,0.213
same,relative viability,[9]; first compound 0.253 µM,0.19
same,relative viability,[9]; first compound 0.8 µM,0.185
same,relative viability,[9]; first compound 2.53 µM,0.165
same,relative viability,[9]; first compound 8 µM,0.217
same,relative viability,[10]; first compound 0.08 µM,0.721
same,relative viability,[10]; first compound 0.253 µM,0.716
same,relative viability,[10]; first compound 0.8 µM,0.646
same,relative viability,[10]; first compound 2.53 µM,0.675
same,relative viability,[10]; first compound 8 µM,0.702
same,relative viability,[11]; first compound 0.08 µM,0.429
same,relative viability,[11]; first compound 0.253 µM,0.513
same,relative viability,[11]; first compound 0.8 µM,0.386
same,relative viability,[11]; first compound 2.53 µM,0.508
same,relative viability,[11]; first compound 8 µM,0.588
same,relative viability,[12]; first compound 0.08 µM,0.704
same,relative viability,[12]; first compound 0.253 µM,1.05
same,relative viability,[12]; first compound 2.53 µM,0.773
same,relative viability,[12]; first compound 8 µM,0.895
same,relative viability,[13]; first compound 0.253 µM,0.453
same,relative viability,[13]; first compound 0.8 µM,0.414
same,relative viability,[13]; first compound 2.53 µM,0.428
same,relative viability,[13]; first compound 8 µM,0.433
same,relative viability,[14]; first compound 0.08 µM,0.786
same,relative viability,[14]; first compound 0.253 µM,0.928
same,relative viability,[14]; first compound 0.8 µM,0.905
same,relative viability,[14]; first compound 2.53 µM,0.761
same,relative viability,[14]; first compound 8 µM,0.793
same,relative viability,[15]; first compound 0.08 µM,0.733
same,relative viability,[15]; first compound 0.253 µM,0.791
same,relative viability,[15]; first compound 0.8 µM,0.838
same,relative viability,[15]; first compound 2.53 µM,0.79
same,relative viability,[15]; first compound 8 µM,0.884
same,relative viability,[16]; first compound 0.08 µM,0.245
same,relative viability,[16]; first compound 0.253 µM,0.341
same,relative viability,[16]; first compound 0.8 µM,0.244
same,relative viability,[16]; first compound 2.53 µM,0.255
same,relative viability,[16]; first compound 8 µM,0.335
same,relative viability,[17]; first compound 0.08 µM,0.476
same,relative viability,[17]; first compound 0.253 µM,0.659
same,relative viability,[17]; first compound 0.8 µM,0.462
same,relative viability,[17]; first compound 2.53 µM,0.468
same,relative viability,[17]; first compound 8 µM,0.669
same,relative viability,[18]; first compound 0.08 µM,0.274
same,relative viability,[18]; first compound 0.253 µM,0.314
same,relative viability,[18]; first compound 0.8 µM,0.297
same,relative viability,[18]; first compound 2.53 µM,0.264
same,relative viability,[18]; first compound 8 µM,0.293
same,relative viability,[19]; first compound 0.08 µM,0.195
same,relative viability,[19]; first compound 0.253 µM,0.217
same,relative viability,[19]; first compound 0.8 µM,0.256
same,relative viability,[19]; first compound 2.53 µM,0.186
same,relative viability,[19]; first compound 8 µM,0.242
same,relative viability,[20]; first compound 0.08 µM,0.93
same,relative viability,[20]; first compound 0.253 µM,1.02
same,relative viability,[20]; first compound 0.8 µM,0.968
same,relative viability,[20]; first compound 2.53 µM,0.88
same,relative viability,[20]; first compound 8 µM,0.965
same,relative viability,[21]; first compound 0.08 µM,0.561
same,relative viability,[21]; first compound 0.253 µM,0.575
same,relative viability,[21]; first compound 0.8 µM,0.598
same,relative viability,[21]; first compound 2.53 µM,0.448
same,relative viability,[21]; first compound 8 µM,0.596
COc1nc(C)cnc1NS(=O)(=O)c1cccnc1-c1ccc(-c2nnco2)cc1 [Zibotentan] + Nc1ncn([C@H]2C[C@H](O)[C@@H](CO)O2)c(=O)n1 [Decitabine] (partner 2 µM),relative viability,[1]; first compound 0.08 µM,0.583
same,relative viability,[1]; first compound 0.253 µM,0.586
same,relative viability,[1]; first compound 0.8 µM,0.744
same,relative viability,[1]; first compound 2.53 µM,0.604
same,relative viability,[2]; first compound 0.08 µM,0.671
same,relative viability,[2]; first compound 0.253 µM,0.601
same,relative viability,[2]; first compound 0.8 µM,0.586
same,relative viability,[2]; first compound 2.53 µM,0.564
same,relative viability,[3]; first compound 0.08 µM,0.841
same,relative viability,[3]; first compound 0.253 µM,0.865
same,relative viability,[3]; first compound 0.8 µM,0.855
same,relative viability,[3]; first compound 2.53 µM,0.919
same,relative viability,[4]; first compound 0.08 µM,0.503
same,relative viability,[4]; first compound 0.253 µM,0.471
same,relative viability,[4]; first compound 0.8 µM,0.528
same,relative viability,[4]; first compound 2.53 µM,0.635
same,relative viability,[5]; first compound 0.08 µM,0.933
same,relative viability,[5]; first compound 0.253 µM,0.848
same,relative viability,[5]; first compound 0.8 µM,0.95
same,relative viability,[5]; first compound 2.53 µM,1.06
same,relative viability,[6]; first compound 0.08 µM,0.393
same,relative viability,[6]; first compound 0.8 µM,0.626
same,relative viability,[6]; first compound 2.53 µM,0.488
same,relative viability,[7]; first compound 0.08 µM,0.992
same,relative viability,[7]; first compound 0.253 µM,0.911
same,relative viability,[7]; first compound 0.8 µM,1.06
same,relative viability,[7]; first compound 2.53 µM,1.04
same,relative viability,[8]; first compound 0.08 µM,0.537
same,relative viability,[8]; first compound 0.253 µM,0.542
same,relative viability,[8]; first compound 0.8 µM,0.613
same,relative viability,[8]; first compound 2.53 µM,0.582
same,relative viability,[9]; first compound 0.08 µM,0.267
same,relative viability,[9]; first compound 0.253 µM,0.198
same,relative viability,[9]; first compound 0.8 µM,0.287
same,relative viability,[9]; first compound 2.53 µM,0.265
same,relative viability,[10]; first compound 0.08 µM,0.718
same,relative viability,[10]; first compound 0.253 µM,0.727
same,relative viability,[10]; first compound 0.8 µM,0.738
same,relative viability,[10]; first compound 2.53 µM,0.709
same,relative viability,[11]; first compound 0.08 µM,0.506
same,relative viability,[11]; first compound 0.253 µM,0.402
same,relative viability,[11]; first compound 0.8 µM,0.573
same,relative viability,[11]; first compound 2.53 µM,0.455
same,relative viability,[12]; first compound 0.08 µM,0.942
same,relative viability,[12]; first compound 0.253 µM,0.826
same,relative viability,[12]; first compound 0.8 µM,0.908
same,relative viability,[12]; first compound 2.53 µM,0.874
same,relative viability,[13]; first compound 0.08 µM,0.482
same,relative viability,[13]; first compound 0.253 µM,0.345
same,relative viability,[13]; first compound 0.8 µM,0.49
same,relative viability,[13]; first compound 2.53 µM,0.438
same,relative viability,[14]; first compound 0.08 µM,0.66
same,relative viability,[14]; first compound 0.253 µM,0.816
same,relative viability,[14]; first compound 0.8 µM,0.718
same,relative viability,[14]; first compound 2.53 µM,0.781
same,relative viability,[15]; first compound 0.08 µM,0.836
same,relative viability,[15]; first compound 0.253 µM,0.777
same,relative viability,[15]; first compound 0.8 µM,0.85
same,relative viability,[15]; first compound 2.53 µM,0.851
same,relative viability,[16]; first compound 0.08 µM,0.387
same,relative viability,[16]; first compound 0.253 µM,0.289
same,relative viability,[16]; first compound 0.8 µM,0.317
same,relative viability,[16]; first compound 2.53 µM,0.213
same,relative viability,[17]; first compound 0.08 µM,0.444
same,relative viability,[17]; first compound 0.253 µM,0.287
same,relative viability,[17]; first compound 0.8 µM,0.464
same,relative viability,[17]; first compound 2.53 µM,0.509
same,relative viability,[18]; first compound 0.08 µM,0.321
same,relative viability,[18]; first compound 0.253 µM,0.286
same,relative viability,[18]; first compound 0.8 µM,0.34
same,relative viability,[18]; first compound 2.53 µM,0.38
same,relative viability,[19]; first compound 0.08 µM,0.26
same,relative viability,[19]; first compound 0.253 µM,0.266
same,relative viability,[19]; first compound 0.8 µM,0.229
same,relative viability,[19]; first compound 2.53 µM,0.246
same,relative viability,[20]; first compound 0.08 µM,1.01
same,relative viability,[20]; first compound 0.253 µM,0.924
same,relative viability,[20]; first compound 0.8 µM,1.01
same,relative viability,[20]; first compound 2.53 µM,0.988
same,relative viability,[21]; first compound 0.08 µM,0.611
same,relative viability,[21]; first compound 0.8 µM,0.702
same,relative viability,[21]; first compound 2.53 µM,0.613
